Source: article PMC9409388 (2022)

Assays:
[1] = test system: c-MYC (DNA, G4) GGGGAGGGTGGGGAGGGTGGGGAAGG; assay: thiazole orange displacement (G4-FID); conditions: 100 mM KCl; 10 mM sodium cacodylate pH 7.3, 18 °C; thiazole orange displaced; from DC50, TO Kb 1.50 × 10^6
[2] = test system: WNT1 (DNA, G4) GGGGGCCACCGGGCAGGGGGCGGGGG; assay: thiazole orange displacement (G4-FID); conditions: 100 mM KCl; 10 mM sodium cacodylate pH 7.3, 18 °C; thiazole orange displaced; from DC50, assumed TO Kb 2.5 × 10^6
[3] = test system: VEGF (VEGFA) (DNA, G4) GGGGCGGGCCGGGGGCGGGG; assay: thiazole orange displacement (G4-FID); conditions: 100 mM KCl; 10 mM sodium cacodylate pH 7.3, 18 °C; thiazole orange displaced; from DC50, assumed TO Kb 2.5 × 10^6
[4] = test system: c-KIT (DNA, G4) GGGAGGGCGCTGGGAGGAGGG; assay: thiazole orange displacement (G4-FID); conditions: 100 mM KCl; 10 mM sodium cacodylate pH 7.3, 18 °C; thiazole orange displaced; from DC50, assumed TO Kb 2.5 × 10^6
[5] = test system: BCL2 (DNA, G4) AGGGGCGGGCGCGGGAGGAAGGGGGCGGGAGCGGGGC; assay: thiazole orange displacement (G4-FID); conditions: 100 mM KCl; 10 mM sodium cacodylate pH 7.3, 18 °C; thiazole orange displaced; from DC50, assumed TO Kb 2.5 × 10^6
[6] = test system: KRAS (DNA, G4) GGGCGGTGTGGGAAGAGGGAAGAGGGGGAGG; assay: thiazole orange displacement (G4-FID); conditions: 100 mM KCl; 10 mM sodium cacodylate pH 7.3, 18 °C; thiazole orange displaced; from DC50, assumed TO Kb 2.5 × 10^6
[7] = test system: Tel (DNA, G4) GGGTTAGGGTTAGGGTTAGGGTTA; assay: thiazole orange displacement (G4-FID); conditions: 100 mM KCl; 10 mM sodium cacodylate pH 7.3, 18 °C; thiazole orange displaced; from DC50, TO Kb 2.62 × 10^6
[8] = test system: DNA hairpin (DNA, hairpin) CAATCGGATCGAATTCGATCCGATTG; assay: thiazole orange displacement (G4-FID); conditions: 100 mM KCl, 10 mM sodium cacodylate pH 7.3, 18 °C, thiazole orange displaced; for Kb: from DC50, TO Kb 3.03 × 10^6
[9] = test system: c-MYC (DNA, G4) GGGGAGGGTGGGGAGGGTGGGGAAGG; assay: thiazole orange displacement (G4-FID); conditions: 100 mM KCl; 10 mM sodium cacodylate pH 7.3, 18 °C; 1 µM thiazole orange displaced, 0.5 µM DNA
[10] = test system: WNT1 (DNA, G4) GGGGGCCACCGGGCAGGGGGCGGGGG; assay: thiazole orange displacement (G4-FID); conditions: 100 mM KCl, 10 mM sodium cacodylate pH 7.3, 18 °C
[11] = test system: VEGF (VEGFA) (DNA, G4) GGGGCGGGCCGGGGGCGGGG; assay: thiazole orange displacement (G4-FID); conditions: 100 mM KCl, 10 mM sodium cacodylate pH 7.3, 18 °C
[12] = test system: c-KIT (DNA, G4) GGGAGGGCGCTGGGAGGAGGG; assay: thiazole orange displacement (G4-FID); conditions: 100 mM KCl, 10 mM sodium cacodylate pH 7.3, 18 °C
[13] = test system: BCL2 (DNA, G4) AGGGGCGGGCGCGGGAGGAAGGGGGCGGGAGCGGGGC; assay: thiazole orange displacement (G4-FID); conditions: 100 mM KCl, 10 mM sodium cacodylate pH 7.3, 18 °C
[14] = test system: KRAS (DNA, G4) GGGCGGTGTGGGAAGAGGGAAGAGGGGGAGG; assay: thiazole orange displacement (G4-FID); conditions: 100 mM KCl, 10 mM sodium cacodylate pH 7.3, 18 °C
[15] = test system: Tel (DNA, G4) GGGTTAGGGTTAGGGTTAGGGTTA; assay: thiazole orange displacement (G4-FID); conditions: 100 mM KCl, 10 mM sodium cacodylate pH 7.3, 18 °C
[16] = test system: c-MYC (DNA, G4) GGGGAGGGTGGGGAGGGTGGGGAAGG; assay: UV melting at 295 nm; conditions: 140 mM NaCl, 0.5 mM KCl; 20 mM Tris-HCl pH 7.3; 2 equivalents of compound, ~3 µM DNA
[17] = test system: DNA hairpin (DNA, hairpin) CAATCGGATCGAATTCGATCCGATTG; assay: thiazole orange displacement (G4-FID); conditions: 100 mM KCl, 10 mM sodium cacodylate pH 7.3, 18 °C
[18] = 1 µM thiazole orange displaced, 0.5 µM DNA
[19] = thiazole orange displaced, highest concentration 10 µM
[20] = thiazole orange displaced, above highest stated concentration (10 µM)

| Structure (SMILES) | Kb [1] | Kb [2] | Kb [3] | Kb [4] | Kb [5] | Kb [6] | Kb [7] | DC50 [9] | DC50 [10, 18] | DC50 [11, 18] | DC50 [12, 18] | DC50 [13, 18] | DC50 [14, 18] | DC50 [15, 18] | increase in Tm [16] | Kb [8] | DC50 [17, 20] | further results |
| --- | --- | --- | --- | --- | --- | --- | --- | --- | --- | --- | --- | --- | --- | --- | --- | --- | --- | --- |
| CC1=CC(=O)C(C(C)C)=CC1=O | 0.63 ± 0.04 × 10^6 M^-1 | 2.71 ± 0.39 × 10^6 M^-1 | 1.50 ± 0.21 × 10^6 M^-1 | 1.61 ± 0.23 × 10^6 M^-1 | 2.87 ± 0.41 × 10^6 M^-1 | 1.52 ± 0.22 × 10^6 M^-1 | 1.68 ± 0.13 × 10^6 M^-1 | 3.97 ± 0.25 µM | 1.29 ± 0.19 µM | 2.33 ± 0.33 µM | 2.17 ± 0.31 µM | 1.22 ± 0.10 µM | 2.30 ± 0.33 µM | 2.15 ± 0.17 µM | – | – | – | binding ([8]; Kb printed as 0, up to 10 µM): no |
| COc1cc(/C=C/C(=O)CC(=O)/C=C/c2ccc(O)c(OC)c2)ccc1O | 0.26 ± 0.02 × 10^6 M^-1 | – | – | – | – | – | – | 9.62 ± 0.70 µM | – | – | – | – | – | – | – | – | – | DC50 [10, 19]: > 10 µM; DC50 [11, 19]: > 10 µM; DC50 [12, 19]: > 10 µM; DC50 [13, 19]: > 10 µM; DC50 [14, 19]: > 10 µM; DC50 [15, 19]: > 10 µM |
| C[n+]1cc2c3c(ccc2c2ccc4cc5c(cc4c21)OCO5)OCO3 | 7.76 ± 0.53 × 10^6 M^-1 | 2.83 ± 0.40 × 10^6 M^-1 | 0.86 ± 0.12 × 10^6 M^-1 | 3.28 ± 0.47 × 10^6 M^-1 | 4.12 ± 0.59 × 10^6 M^-1 | 0.93 ± 0.13 × 10^6 M^-1 | 0.43 ± 0.03 × 10^6 M^-1 | 0.32 ± 0.02 µM | 1.24 ± 0.17 µM | 4.07 ± 0.57 µM | 1.07 ± 0.15 µM | 0.85 ± 0.12 µM | 3.76 ± 0.53 µM | 8.42 ± 0.59 µM | 3.5 ± 0.3 °C | 1.30 ± 0.17 × 10^6 M^-1 | – | DC50 [17, 18]: 3.08 ± 0.40 µM |
| O=C(O[C@@H]1Cc2c(O)cc(O)cc2O[C@@H]1c1cc(O)c(O)c(O)c1)c1cc(O)c(O)c(O)c1 | 2.94 ± 0.20 × 10^6 M^-1 | 2.75 ± 0.39 × 10^6 M^-1 | 1.75 ± 0.25 × 10^6 M^-1 | 1.44 ± 0.21 × 10^6 M^-1 | 3.65 ± 0.52 × 10^6 M^-1 | 1.62 ± 0.23 × 10^6 M^-1 | 1.81 ± 0.14 × 10^6 M^-1 | 0.85 ± 0.06 µM | 1.27 ± 0.18 µM | 2.00 ± 0.28 µM | 2.43 ± 0.35 µM | 0.96 ± 0.14 µM | 2.16 ± 0.31 µM | 2.00 ± 0.15 µM | – | – | – | – |
| O=c1c(O)c(-c2ccc(O)c(O)c2)oc2cc(O)cc(O)c12 | 5.33 ± 0.36 × 10^6 M^-1 | 2.07 ± 0.30 × 10^6 M^-1 | 3.10 ± 0.44 × 10^6 M^-1 | 3.80 ± 0.54 × 10^6 M^-1 | 5.56 ± 0.79 × 10^6 M^-1 | 1.72 ± 0.25 × 10^6 M^-1 | 7.43 ± 0.55 × 10^6 M^-1 | 0.47 ± 0.03 µM | 1.69 ± 0.24 µM | 1.13 ± 0.16 µM | 0.92 ± 0.13 µM | 0.63 ± 0.09 µM | 2.03 ± 0.30 µM | 0.49 ± 0.04 µM | 3.0 ± 0.3 °C | 0.038 ± 0.004 × 10^6 M^-1 | 105.26 ± 11.08 µM | – |
| O=c1c(O)c(-c2ccc(O)cc2)oc2cc(O)cc(O)c12 | 1.16 ± 0.08 × 10^6 M^-1 | 3.03 ± 0.43 × 10^6 M^-1 | 2.09 ± 0.30 × 10^6 M^-1 | 1.63 ± 0.23 × 10^6 M^-1 | 1.75 ± 0.25 × 10^6 M^-1 | 1.63 ± 0.23 × 10^6 M^-1 | 1.81 ± 0.14 × 10^6 M^-1 | 2.16 ± 0.15 µM | 1.16 ± 0.16 µM | 1.67 ± 0.24 µM | 2.15 ± 0.30 µM | 2.00 ± 0.28 µM | 2.15 ± 0.31 µM | 2.00 ± 0.15 µM | – | 0.035 ± 0.002 × 10^6 M^-1 | 114.29 ± 6.53 µM | – |
